Results reported in PubChem BioAssay (NCI).
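Assay format: 96-well plates, 48-hour exposure. TGI is the concentration that stops growth completely.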

Key:
Assay in all cases: NCI-60 cell line screen, 48 h
[1] = test system: IGROV1 ovarian
[2] = test system: HCC-2998 colon
[3] = test system: MCF7 breast
[4] = test system: NCI-H522 lung
[5] = test system: SW-620 colon
[6] = test system: OVCAR-4 ovarian
[7] = test system: HCT-116 colon
[8] = test system: MALME-3M melanoma
[9] = test system: OVCAR-3 ovarian
[10] = test system: BT-549 breast
[11] = test system: NCI/ADR-RES ovarian
[12] = test system: COLO 205 colon
[13] = test system: SNB-75 CNS
[14] = test system: 786-0 renal
[15] = test system: A549 NSCLC
[16] = test system: UACC-62 melanoma
[17] = test system: SK-MEL-2 melanoma
[18] = test system: RXF 393 renal
[19] = test system: CCRF-CEM leukemia
[20] = test system: T-47D breast
[21] = test system: RPMI-8226 leukemia
[22] = test system: MDA-MB-231 breast
[23] = test system: HL-60(TB) leukemia
[24] = test system: SK-MEL-5 melanoma
[25] = test system: KM12 colon
[26] = test system: HOP-62 NSCLC
[27] = test system: UO-31 renal
[28] = test system: SN12C renal
[29] = test system: HOP-92 NSCLC
[30] = test system: MOLT-4 leukemia
[31] = test system: OVCAR-8 ovarian
[32] = test system: SNB-19 CNS
[33] = test system: OVCAR-5 ovarian
[34] = test system: SF-539 CNS
[35] = test system: HCT-15 colon
[36] = test system: NCI-H23 lung
[37] = test system: ACHN renal
[38] = test system: MDA-MB-435
[39] = test system: SK-MEL-28 melanoma
[40] = test system: SK-OV-3 ovarian
[41] = test system: MDA-N
[42] = test system: M14 melanoma
[43] = test system: SF-268 CNS
[44] = test system: LOX IMVI melanoma
[45] = test system: SR leukemia
[46] = test system: CAKI-1 renal
[47] = test system: HT29 colon
[48] = test system: K-562 leukemia
[49] = test system: U251 CNS
[50] = test system: UACC-257 melanoma
[51] = test system: HS 578T breast
[52] = test system: PC-3 prostate
[53] = test system: NCI-H460 lung
[54] = test system: NCI-H226 lung
[55] = test system: DU-145 prostate
[56] = test system: EKVX NSCLC
[57] = test system: A498 renal
[58] = test system: SF-295 CNS
[59] = test system: TK-10 renal

With `N=C(N)c1ccc(C(NC(=O)CNS(=O)(=O)c2ccc3ccccc3c2)P(=O)(Oc2ccccc2)Oc2ccccc2)cc1` (stereo not given) the TGI [1] was > 100 µM, the TGI [2] was > 100 µM and the TGI [3] was > 100 µM. The TGI [4] was > 100 µM, the TGI [5] was > 100 µM and the TGI [6] was > 100 µM. The TGI [7] was > 100 µM, the TGI [8] was > 100 µM and the TGI [9] was > 100 µM. For the same molecule, the TGI [10] was 66.2 µM, the TGI [11] was > 100 µM and the TGI [12] was > 100 µM. For the same molecule, the TGI [13] was > 100 µM, the TGI [14] was > 100 µM and the TGI [15] was > 100 µM. The TGI [16] was > 100 µM, the TGI [17] was > 100 µM and the TGI [18] was > 100 µM. The TGI [19] was > 100 µM, the TGI [20] was > 100 µM and the TGI [21] was > 100 µM. The TGI [22] was > 100 µM, the TGI [23] was > 100 µM and the TGI [24] was > 100 µM. The TGI [25] was > 100 µM, the TGI [26] was > 100 µM and the TGI [27] was > 100 µM. For the same molecule, the TGI [28] was > 100 µM, the TGI [29] was > 100 µM and the TGI [30] was 92.4 µM. For the same molecule, the TGI [31] was > 100 µM, the TGI [32] was > 100 µM and the TGI [33] was > 100 µM. The TGI [34] was 71.3 µM, the TGI [35] was > 100 µM and the TGI [36] was > 100 µM. For the same molecule, the TGI [37] was > 100 µM, the TGI [38] was > 100 µM and the TGI [39] was > 100 µM. The TGI [40] was > 100 µM, the TGI [41] was > 100 µM and the TGI [42] was > 100 µM. The TGI [43] was > 100 µM, the TGI [44] was > 100 µM and the TGI [45] was > 100 µM. The TGI [46] was > 100 µM, the TGI [47] was > 100 µM and the TGI [48] was > 100 µM. For the same molecule, the TGI [49] was > 100 µM, the TGI [50] was > 100 µM and the TGI [51] was > 100 µM. For the same molecule, the TGI [52] was > 100 µM, the TGI [53] was > 100 µM and the TGI [54] was 38.8 µM. For the same molecule, the TGI [55] was > 100 µM.

`O=Cc1ccc(OCc2cccc(COc3ccc(/C=N\Nc4ccc([N+](=O)[O-])cc4[N+](=O)[O-])cc3)n2)cc1` was tested, and the TGI [1] was > 100 µM, the TGI [2] was > 100 µM and the TGI [3] was > 100 µM. The TGI [4] was > 100 µM, the TGI [5] was > 100 µM and the TGI [6] was > 100 µM. The TGI [7] was > 100 µM, the TGI [8] was > 100 µM and the TGI [9] was > 100 µM. For the same molecule, the TGI [10] was > 100 µM, the TGI [11] was > 100 µM and the TGI [12] was > 100 µM. The TGI [14] was > 100 µM, the TGI [15] was > 100 µM and the TGI [16] was > 100 µM. The TGI [17] was > 100 µM, the TGI [18] was > 100 µM and the TGI [19] was > 100 µM. The TGI [20] was > 100 µM, the TGI [21] was > 100 µM and the TGI [22] was > 100 µM. For the same molecule, the TGI [23] was > 100 µM, the TGI [56] was > 100 µM and the TGI [24] was > 100 µM. The TGI [25] was > 100 µM, the TGI [26] was > 100 µM and the TGI [27] was > 100 µM. For the same molecule, the TGI [57] was > 100 µM, the TGI [28] was > 100 µM and the TGI [30] was 80.2 µM. The TGI [58] was > 100 µM, the TGI [31] was > 100 µM and the TGI [32] was > 100 µM. For the same molecule, the TGI [33] was > 100 µM, the TGI [35] was > 100 µM and the TGI [36] was > 100 µM. For the same molecule, the TGI [37] was > 100 µM, the TGI [59] was > 100 µM and the TGI [38] was > 100 µM. For the same molecule, the TGI [39] was > 100 µM, the TGI [41] was > 100 µM and the TGI [42] was > 100 µM. For the same molecule, the TGI [43] was > 100 µM, the TGI [44] was > 100 µM and the TGI [45] was 75.3 µM. For the same molecule, the TGI [46] was > 100 µM, the TGI [47] was > 100 µM and the TGI [48] was > 100 µM. For the same molecule, the TGI [49] was > 100 µM, the TGI [50] was > 100 µM and the TGI [51] was > 100 µM. The TGI [52] was > 100 µM, the TGI [53] was > 100 µM and the TGI [54] was > 100 µM. The TGI [55] was > 100 µM.
